Some test systems named below: UACC-257 melanoma; IGROV1 ovarian; MOLT-4 leukemia; PC-3 prostate; MDA-MB-231 breast; RXF 393 renal; HT29 colon; NCI-H460 lung; MDA-MB-435; U251 CNS.
What all share (assay): inhibition of tumour cell growth, NCI panel, 48 h

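How tested: cells in 96-well plates exposed to compound for 48 hours at five concentrations. Definition used: TGI = concentration required for complete inhibition of growth.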

The values that follow come from PubChem BioAssay (NCI).

As for `COC(=O)c1c(C)nc(C)c(N=O)c1-c1ccccc1C(F)(F)F`, the TGI was 32.8 µM in the test on UACC-257 melanoma; 33.9 µM in the test on IGROV1 ovarian; greater than 100 µM in the test on MOLT-4 leukemia; greater than 100 µM in the test with PC-3 prostate; 32.3 µM in the test with MDA-MB-231 breast; 29.7 µM with RXF 393 renal. Besides, the TGI in the test on HT29 colon is 29.1 µM; in the test with NCI-H460 lung, greater than 100 µM; with MDA-MB-435 it was 56.3 µM; with U251 CNS it was 34.5 µM.
Turning to `O=C(O)CCCN1CCCCC1`, the TGI in the test on UACC-257 melanoma, in the test on IGROV1 ovarian, with MOLT-4 leukemia, in the test on PC-3 prostate, in the test with MDA-MB-231 breast and in the test with RXF 393 renal was greater than 100 µM in each case. The TGI in the test on HT29 colon, in the test with NCI-H460 lung, with MDA-MB-435 and in the test with U251 CNS was greater than 100 µM each time.
Consider `NC(=O)c1cc2ccccc2c(N=Nc2ccccc2)c1O`, for which the TGI in the test on UACC-257 melanoma, in the test on IGROV1 ovarian, in the test on MOLT-4 leukemia, in the test on PC-3 prostate, in the test with MDA-MB-231 breast and in the test with RXF 393 renal was greater than 100 µM in each case. The TGI is greater than 100 µM in the test on HT29 colon, greater than 100 µM with MDA-MB-435 and 49.2 µM in the test with U251 CNS.
`Nc1nc(Cl)cc(NCC2(CO)CC(CCCCc3ccccc3)C2)n1` (stereo not drawn): the TGI with UACC-257 melanoma, in the test on IGROV1 ovarian, in the test with MOLT-4 leukemia, in the test with PC-3 prostate, in the test on MDA-MB-231 breast and with RXF 393 renal was greater than 100 µM each time. In addition, the TGI in the test with HT29 colon is 35.3 µM; in the test with NCI-H460 lung, greater than 100 µM; in the test on MDA-MB-435, greater than 100 µM; in the test on U251 CNS, greater than 100 µM.
Consider `CCOC(=O)Nc1ccc(S(=O)(=O)Nc2ccc(Br)cc2)cc1`, for which the TGI in the test on UACC-257 melanoma was greater than 100 µM; with IGROV1 ovarian, greater than 100 µM; with MOLT-4 leukemia, greater than 100 µM; in the test with PC-3 prostate, greater than 100 µM; in the test with MDA-MB-231 breast it was 93.5 µM; with RXF 393 renal, greater than 100 µM. The TGI is greater than 100 µM with HT29 colon, 72 µM with NCI-H460 lung, greater than 100 µM in the test with MDA-MB-435 and greater than 100 µM in the test on U251 CNS.
In the case of `C[N+](C)(C)CCCCCc1c2nc(c(CCCCC[N+](C)(C)C)c3ccc([nH]3)c(CCCCC[N+](C)(C)C)c3ccc([nH]3)c(CCCCC[N+](C)(C)C)c3nc1C=C3)C=C2`, the TGI in the test with UACC-257 melanoma is greater than 100 µM; with IGROV1 ovarian, greater than 100 µM; in the test with MOLT-4 leukemia, greater than 100 µM; with PC-3 prostate, greater than 100 µM; in the test on MDA-MB-231 breast, greater than 100 µM; in the test with RXF 393 renal, 7.32 µM. Further, the TGI with HT29 colon, with NCI-H460 lung, in the test on MDA-MB-435 and in the test with U251 CNS was greater than 100 µM throughout.
As for `CCc1nnc2sc(-c3ccc(-c4ccc(Cl)cc4Cl)o3)nn12`, the TGI with UACC-257 melanoma is greater than 100 µM; in the test on IGROV1 ovarian, greater than 100 µM; with MOLT-4 leukemia, greater than 100 µM; in the test on PC-3 prostate, greater than 100 µM; with MDA-MB-231 breast, greater than 100 µM; with RXF 393 renal it was 22.3 µM. Besides, the TGI in the test on HT29 colon, with NCI-H460 lung, in the test with MDA-MB-435 and in the test with U251 CNS was greater than 100 µM throughout.
For `CCOC(=O)c1c(OCC)[nH]c(=O)c(C(c2ccc(F)cc2)c2c(O)c(C(=O)OCC)c(OCC)[nH]c2=O)c1O`, the TGI is 37.3 µM in the test with UACC-257 melanoma; 30.3 µM with IGROV1 ovarian; 71 µM in the test on MOLT-4 leukemia; 34.6 µM in the test with PC-3 prostate; 29.8 µM in the test on MDA-MB-231 breast; 23 µM with RXF 393 renal. Also, the TGI stood at 31.7 µM with HT29 colon, 36.5 µM in the test on NCI-H460 lung, 37.7 µM with MDA-MB-435 and 36.3 µM in the test with U251 CNS.
As for `COc1ccc(N(C(=O)OC(C)(C)C)[C@@H]2C(C)=C[C@H]([S@@](=O)c3ccc(C)cc3)[C@@H]3C(=O)N(C)C(=O)[C@@H]32)cc1`, the TGI in the test with UACC-257 melanoma is 43.8 µM; in the test on IGROV1 ovarian, 23.1 µM; in the test on MOLT-4 leukemia it was 94.6 µM; with PC-3 prostate, greater than 100 µM; with MDA-MB-231 breast, 46.4 µM; in the test on RXF 393 renal, 30.4 µM. The TGI was 45.5 µM with HT29 colon, greater than 100 µM in the test with NCI-H460 lung, 37.9 µM in the test with MDA-MB-435 and 31.9 µM in the test on U251 CNS.
Take `COc1ccc(OC)c2c1C[C@@H]1C(C#N)N3[C@H](Cc4c(OC)ccc(OC)c4[C@@H]3C)C(=O)N1[C@H]2C` (stereo partly drawn): the TGI was found to be 6.96 µM in the test with UACC-257 melanoma; 16.8 µM in the test on IGROV1 ovarian; 15.9 µM with MOLT-4 leukemia; 11.7 µM with PC-3 prostate; 7.56 µM in the test with MDA-MB-231 breast; 3.44 µM in the test with RXF 393 renal. In addition, the TGI turned out to be 30.4 µM in the test on HT29 colon, 48 µM with NCI-H460 lung, 14 µM in the test on MDA-MB-435 and 4.91 µM in the test on U251 CNS.
With `Cc1ccc(Nc2ncnc3sc(SCc4ccccc4)nc23)cc1`, the TGI in the test on UACC-257 melanoma, in the test with IGROV1 ovarian, with MOLT-4 leukemia, with PC-3 prostate, with MDA-MB-231 breast and in the test with RXF 393 renal was greater than 100 µM throughout. The TGI in the test on HT29 colon, in the test on NCI-H460 lung, with MDA-MB-435 and in the test on U251 CNS was greater than 100 µM in each case.
For `CC(=O)c1ccc2c(c1)CC1(C2)Cc2cc3c(cc2C1)C(=O)CC3` (stereo not drawn), the TGI in the test with UACC-257 melanoma is 29.1 µM; in the test with IGROV1 ovarian it was 39.2 µM; with PC-3 prostate, 17.8 µM; in the test on MDA-MB-231 breast, 11.2 µM; in the test on RXF 393 renal, 17.7 µM; with HT29 colon it was 6.32 µM. Also, the TGI in the test on NCI-H460 lung turned out to be 12.2 µM; with MDA-MB-435, 0.636 µM; in the test with U251 CNS, 34 µM.
For `CC(C)(C)[C@@H]1NC(=O)CN1C(=O)OCc1ccccc1`, the TGI in the test with UACC-257 melanoma, in the test on IGROV1 ovarian, in the test on MOLT-4 leukemia, with PC-3 prostate, in the test with MDA-MB-231 breast and in the test on RXF 393 renal was greater than 100 µM in each case. Besides, the TGI in the test on HT29 colon, in the test with NCI-H460 lung, with MDA-MB-435 and in the test on U251 CNS was greater than 100 µM each time.
Turning to `CC(C)(C)c1cc(C2COC(=O)COCCOCC(=O)OCCOCCO2)cc(C(C)(C)C)c1O` (stereo not drawn), the TGI in the test on UACC-257 melanoma was greater than 100 µM; with IGROV1 ovarian, greater than 100 µM; with MOLT-4 leukemia it was greater than 100 µM; in the test on PC-3 prostate, 63.3 µM; in the test with MDA-MB-231 breast, greater than 100 µM; in the test with RXF 393 renal, 47 µM. Further, the TGI with HT29 colon, in the test on NCI-H460 lung, with MDA-MB-435 and in the test with U251 CNS was greater than 100 µM throughout.
Turning to `Cc1[nH]n(C(=O)c2ccccc2O)c(=O)c1/C=C1\C(=O)C=Cc2ccccc21`, the TGI is 26.6 µM in the test on UACC-257 melanoma; 11.5 µM in the test on IGROV1 ovarian; greater than 100 µM in the test on MOLT-4 leukemia; 23 µM with PC-3 prostate; 26.8 µM with MDA-MB-231 breast; 18.8 µM with RXF 393 renal. Moreover, the TGI with HT29 colon was greater than 81 µM; with NCI-H460 lung it was 9.94 µM; in the test with MDA-MB-435, 79.7 µM; in the test on U251 CNS, 40.7 µM.
As for `C=C1C(=O)O[C@H]2C1C[C@@H](O)[C@@]1(C)OC1CC[C@@]1(C)O[C@H]21` (stereo partly drawn), the TGI in the test on UACC-257 melanoma is 42.3 µM; with MOLT-4 leukemia, 24.8 µM; in the test with PC-3 prostate, 83.9 µM; in the test with MDA-MB-231 breast, 40.7 µM; with RXF 393 renal it was 34.4 µM; in the test on HT29 colon it was 98.9 µM. Moreover, the TGI in the test on NCI-H460 lung is greater than 100 µM; with MDA-MB-435 it was 60 µM; with U251 CNS, greater than 100 µM.
In the case of `O=[N+]([O-])c1ccccc1S(=O)(=O)N1CCCc2cc(Cl)ccc21`, the TGI was greater than 96.1 µM in the test on UACC-257 melanoma; greater than 100 µM in the test on IGROV1 ovarian; greater than 100 µM in the test on MOLT-4 leukemia; greater than 100 µM in the test with PC-3 prostate; greater than 100 µM in the test with MDA-MB-231 breast; 74.1 µM in the test with RXF 393 renal. Also, the TGI with HT29 colon is 51.3 µM; in the test with NCI-H460 lung, greater than 100 µM; in the test with MDA-MB-435, 41.7 µM.
Regarding `CCCCc1ccc(N2C(=O)c3cc(C)cnc3S2(=O)=O)cc1`, the TGI with IGROV1 ovarian, in the test with MOLT-4 leukemia, with PC-3 prostate, in the test on MDA-MB-231 breast, in the test with RXF 393 renal and in the test on HT29 colon was greater than 100 µM in each case. For the same compound, the TGI with NCI-H460 lung, with MDA-MB-435 and with U251 CNS was greater than 100 µM in each case.
Regarding `CC(=O)OCc1ccc(-c2nc(C#N)c(N)o2)o1`, the TGI with UACC-257 melanoma, with IGROV1 ovarian, in the test on MOLT-4 leukemia, with PC-3 prostate, in the test with MDA-MB-231 breast and with RXF 393 renal was greater than 10 µM throughout. For the same compound, the TGI in the test with HT29 colon, in the test on NCI-H460 lung and in the test with MDA-MB-435 was greater than 10 µM throughout.
For `CCC(C#N)N(Cc1cccc(CN(C(C)=O)C(C#N)CC)c1)C(C)=O` (stereo not drawn), the TGI in the test on UACC-257 melanoma, in the test with IGROV1 ovarian, in the test on MOLT-4 leukemia, in the test on PC-3 prostate, in the test with MDA-MB-231 breast and in the test on RXF 393 renal was greater than 100 µM each time. Besides, the TGI with HT29 colon, with MDA-MB-435 and in the test on U251 CNS was greater than 100 µM throughout.
